Measurements taken from US20250277059A1, “ANTIBODY USED TO TREAT CORONAVIRUS INFECTION” (priority 2022, published 2025).

Key:
[1] = test system: pseudo-typed virus having S protein of SARS COV_2 S VOC202012/01 (B.1.1.7: α variant); format: cell-based, SARS-COV-2
[2] = test system: pseudo-typed virus having S protein of SARS COV_2 S 501Y.V2 (B.1.351: β variant); format: cell-based, SARS-COV-2

## N=C(N)c1ccc2cc(OC(=O)c3ccc(N=C(N)N)cc3)ccc2c1 [Nafamostat, nafamostat]
[1]
  infection inhibiting effect on α variant-type virus: exhibited infection inhibiting effects
[2]
  infection inhibiting effect on β variant-type virus: exhibited infection inhibiting effects
